Laboratory results reported in patent US12564580B2, “Mitochondria-targeted isoketal/isolevuglandin scavengers and uses thereof” (Vanderbilt University, priority 2020, dated 2026).

Tests used:
[1] = Tolerability in animal experiments; assay type: in vivo; details: doses from 0.1-0.3 g/L in drinking water
Source text: (§1) Mito2HOBA is a water-soluble compound which can be supplied in the media and provided to animals in the drinking water.

Water solubility = assay type: physicochemical
Source text: as §1

kidney mitochondria = experiment: Respiration of kidney mitochondria isolated from mito2HOBA and LPS treated mice; assay type: in vivo, mouse
Experimental: To study the mitochondrial function, the combination of glutamate and malate (GM) or succinate was used as substrates. Since glutamate can be converted via transamination to α-ketoglutarate and further to succinate, the present inventors used complex II inhibitor malonate to define specific complex I respiration. The basal respiration (1) was measured in mitochondria supplemented with respiratory substrates. Then ADP was added to measure the coupled respiration (2). The proton leak (3) was determined after addition of complex V inhibitor oligomycin A. The uncoupled respiration (4) was measured after supplementation with CCCP. Finally, antimycin A plus rotenone were added to assess non-mitochondrial respiration (5) as described previously [32].
In order to define specific alterations in the mitochondrial respiration in LPS model of sepsis and test the potential protection by mito2HOBA the present inventors adopted the Seahorse protocol for mitochondrial studies in the presence of mitochondrial substrates Glutamate+Malate (GM) or succinate. To define the specific role of complex I mediated respiration the present inventors performed measurements in the presence of complex II inhibitor malonate (5 mM). The present inventors measured basal respiration in the presence of mitochondria plus substrates, coupled respiration after addition of ADP (2 mM), proton leak following addition of oligomycin A (2.5 μM) uncoupled respiration after supplementation of CCCP (1 μM) and non-mitochondrial respiration with mixture of antimycin A and rotenone (1 μM) Mitochondrial studies where independently verified in two labs using Oroboros O2k high-resolution respirometry and Fluorescence Lifetime Micro Oxygen Monitoring System (Instech Laboratories, Inc). Kidney mitochondria were isolated from control sham mice, LPS-injected mice (25 μg/g, 16 hours post-injection), mito2HOBA supplemented mice (0.1 g/Liter drinking water, 4 days), or mito2HOBA plus LPS (0.1 g/Liter mito2HOBA for 3 days plus LPS injection).

[2] = system: SOD2 acetylation in human arterioles; experiment: SOD2 acetylation in human arterioles treated ex vivo (Western blot); assay type: cell-based; details: arterioles from hypertensive subjects, 0.5 μM, 24 hours, DMEM
Experimental: FIGS. 8A-D show Western blots of mitochondrial isoLGs (A) in human arterioles from normotensive and hypertensive subjects (n=5), (B) development of mitochondria-targeted isoLG scavenger mito2HOBA and (C, D) SOD2 acetylation in human arterioles isolated from normotensive and hypertensive subjects and treated ex vivo with mito2HOBA (0.5 μM, 24 hours, DMEM). Data were normalized by Complex I levels (Sham is 100%). Data are mean±SEM. *P<0.01 vs Normotensive Sham, **P<0.01 vs Hypertensive (n=5).
Arterioles (100 to 200-μm diameter) were harvested from human mediastinal fat obtained from patients during cardiac surgery enrolled in the Risk of Oxygen during Cardiac Surgery (ROCS) randomized clinical trial with essential hypertension (BP>140/90 mmHg) and normotensive subjects as previously described for Western blot analysis of SOD2 and SOD2 acetylation. Full informed consent was obtained for all tissue samples.
Hypertension is associated with inactivation of mitochondrial deacetylase Sirt3 and hyperacetylation of mitochondrial superoxide dismutase (SOD2). To study the potential role of mitochondrial isoLGs in Sirt3 inactivation, we developed the mitochondria-targeted isoLG scavenger mito2HOBA (FIG. 8B). Mito2HOBA selectively accumulates in the mitochondria due to its lipophilic cation triphenylphosphonium. […]

[3] = system: mitochondrial isoLG-Lysyl-Lactam protein adducts; experiment: isoLG-Lysyl-Lactam adducts in kidney mitochondria by LC/MS/MS; assay type: in vivo, mouse; details: Ang II-infused mice, mito2HOBA 0.1 g/L
Source text: FIGS. 10A-D show the effect of mito2HOBA on angiotensin II-induced hypertension and accumulation of mitochondrial isoLGs protein adducts. (A) Blood pressure tail-cuff measurements in male Sham or angiotensin II-infused mice supplied with mito2HOBA in drinking water (0.1 g/L) or equimolar amount of untargeted analog 2HOBA (0.17 mmol/L). (B) Telemetry studies of blood pressure in angiotensin II-infused mice supplied with mito2HOBA or plain water as a vehicle. (C) Representative LC/MS/MS chromatograms of isoLG-Lysyl-Lactam adduct; (D) isoLG-Lys-Lactam levels in kidney mitochondria isolated from Sham or angiotensin II-infused mice supplied with mito2HOBA. Results are mean±SEM. *P<0.01 vs Sham, **P<0.01 vs Ang II (n=8).
C57B1/6J mice were sacrificed by carbon dioxide and kidneys removed, cleaned from fat tissue and placed in the ice-slurry cold isolation medium. […] Mitochondrial protein concentration was measured by Bradford method.
IsoLG-Lysyl-Lactam adducts were measured in mitochondria isolated from the kidneys of sham or angiotensin II-infused mice using Mass Spectrometry. […] A [^13C6] internal standard was added and the isoLG-lysyl adducts were purified by solid phase extraction and HPLC before being quantified by Liquid Chromatography-tandem Mass Spectrometry assay (LC/ESI/MS/MS) using isotopic dilution as described previously.

[4] = system: aortic mitochondrial proteins (SOD2, CypD, NDUFS1); experiment: Western blot analysis of mitochondrial acetylation and isoLG adducts in aortas of angiotensin II-infused mice; assay type: in vivo, mouse
Source text: FIGS. 11A-D show Western blot analysis of mitochondrial acetylation in aortas isolated from Sham and angiotensin II-infused mice treated with mito2HOBA. (A) Typical Western blots isoLG-protein adducts (D11 ab), Sirt3, Acetyl-Lysine, SOD2-K68-Acetylation, CypD Acetylation, isoLG adduct with complex I NDUFS1 75 KDa subunit and mitochondrial complex I; (B) Sirt3 levels; (C) mitochondrial protein lysine acetylation; (D) SOD2-K68-Acetyl levels; and (E) CypD-Acetyl levels. Mice supplied with mito2HOBA (m2H) in drinking water (0.1 g/L) and angiotensin II (osmotic pump, 0.7 mg/kg/day) for 14 days. Data were normalized by Complex I levels (Sham is 100%). Results are mean±SEM (n=5). *P<0.01 vs Sham, **P<0.01 vs angiotensin II (Ang II).
Dihydroethidium (DHE) and MitoSOX superoxide probes were supplied by Invitrogen (Grand Island, NY). Sirt3 (54905) antibodies were from Cell Signaling. Acetyl-K68-SOD2 (ab137037), complex I NDUFS1 75 kDa subunit (ab22094) and CypD (ab110324) and GAPDH (ab8245) antibodies were from Abcam. SOD2 (sc30080) antibodies were obtained from Santa Cruz Biotechnology. Acetyl-lysine antibodies (ab3839) were provided by Millipore-Sigma. D11, an isoLG-lysyl adducts-specific scFv antibody, has been previously characterized. All antibodies were used at 1000-fold dilution. […] All other reagents were obtained from Sigma (St Louis, MO).

[5] = LPS 25 μg/g plus mito2HOBA 0.1 g/L
[6] = mito2HOBA alone, 0.1 g/L drinking water, 4 days

With `NCc1ccc(OCCCC[P+](c2ccccc2)(c2ccccc2)c2ccccc2)cc1O` [mito2HOBA] the tolerability [1] was “well tolerated”, the water solubility (Water solubility) was “water-soluble” and the “LPS-induced impairment of GM-mediated respiration” value (kidney mitochondria; [5]) was “significantly protected”. For the same compound, the “LPS-induced impairment of complex I-specific oxygen consumption in the presence of GM+malonate” value (kidney mitochondria; [5]) was “significantly protected”, the mitochondrial protein leak (kidney mitochondria; [5]) was “did not affect” and the succinate mediated respiration (kidney mitochondria; [5]) was “did not affect”. The “complex I-specific oxygen consumption in the presence of GM+malonate” value (kidney mitochondria; [6]) was “improved”, the succinate-driven respiration (kidney mitochondria; [6]) was “slightly reduced” and the SOD2 acetylation [2] was “significantly reduced”. For the same compound, the “isoLG-Lysyl-Lactam adducts formation in kidney mitochondria” value [3] was “abolished”, the “SOD2 acetylation in aortas” value ([4]; % compared to control mice, Ang II plus mito2HOBA) was 147% and the “CypD acetylation in aortas” value ([4]; % compared to control, Ang II plus mito2HOBA) was 156%. The “hyperacetylation of mitochondrial proteins in aortas” value ([4]; Ang II 14 days, mito2HOBA 0.1 g/L (Ang II alone 420%)) was “normalized”, the “isoLG-complex I NDUFS1 subunit adduct levels” value ([4]; Ang II plus mito2HOBA) was “reduced” and the “mitochondrial isoLG adducts in aortic mitochondria” value ([4]; Ang II plus mito2HOBA) was “inhibited formation”.
